# Measured values: patent US12157730B2, “Heteroaryl derivative, method for producing same, and pharmaceutical composition comprising same as effective component” (VORONOI INC., priority 2019, dated 2024)
# Biological target: T1, Ba/F3 cell EGFR Exon20 ins NPH (Homo sapiens, UniProt P00533, INS773NPH)
# T1 construct: expressed in transfected cells; host or cells: Ba/F3
# Test: Ba/F3 cell proliferation suppression, EGFR Exon20 ins NPH
# Type: cell-based
# Details: GI50 class; Ba/F3 cell line with NPH inserted at Exon20 of EGFR; 72 hours
# Outline: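 Cells were seeded 24 h before dosing and then treated for 72 hours with compound at final concentrations of 0.3 nM to 50 um. Live cells were measured by CellTiter-Glo luminescence, and GI50 values were derived from growth ratio relative to control across three repeats.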
row,Ba/F3 (NPH) Activity,SMILES
1,C (500 nM ≤ GI50 < 5000 nM),"C=CC(=O)Nc1cc(Nc2cc(N3OCC[C@@H]3Cc3ccc(C(F)(F)F)cc3)ncn2)c(OC)cc1N1CCN(C2CC2)CC1 [compound 1049, N-(2-(4-cyclopropylpiperazine-1-yl)-4-methoxy-5-((6-((S)-3-(4-(trifluoromethyl)benzyl)isoxazolidine-2-yl)pyrimidine-4-yl)amino)phenyl) acrylamide]"
2,A (GI50 < 50 nM),"C=CC(=O)Nc1cc(Nc2cc(N3OCC[C@@H]3c3cc(F)cc(F)c3)ncn2)c(OC)cc1N1CCC(N2CCN(C)[C@@H](C)C2)CC1 [compound 760, N-(5-((6-((R)-3-(3,5-difluorophenyl)isoxazolidine-2yl)pyrimidine-4-yl)amino)-2-(4-((S)-3,4-dimethylpiperazine-1-yl)piperidine-1-yl)-4-methoxyphenyl) acrylamide]"
3,A (GI50 < 50 nM),"C=CC(=O)Nc1cc(Nc2cc(N3OCC[C@@H]3Cc3ccccc3)ncn2)c(OC)cc1N1CCN(CC)CC1 [compound 946, N-(5-((6-((S)-3-benzylisoxazolidine-2-yl)pyrimidine-4-yl)amino)-2-(4-ethylpiperazine-1-yl)-4-methoxyphenyl) acrylamide]"
4,A (GI50 < 50 nM),"C=CC(=O)Nc1cc(Nc2cc(N3OCC[C@@H]3c3ccc4ccccc4c3)ncn2)c(OC)cc1N1CCC(N2C[C@@H]3C[C@H]2CO3)CC1 [compound 512, N-(2-(4-((1S,4S)-2-oxa-5-azabicyclo[2.2.1]heptane-5-yl)piperidine-1-yl)-4-methoxy-5-((6-((R)-3-(naphthalene-2-yl)isoxazolidine-2-yl)pyrimidine-4-yl)amino)phenyl)acrylamide]"
5,A (GI50 < 50 nM),"C=CC(=O)Nc1cc(Nc2cc(N3OCC[C@@H]3Cc3cccc(F)c3C)ncn2)c(OC)cc1N1CCN(CC)CC1 [compound 1003, N-(2-(4-ethylpiperazine-1-yl)-5-((6-(S)-(3-(3-fluoro-2-methylbenzyl)isoxazolidine-2-yl)pyrimidine-4-yl)amino)-4-methoxyphenyl) acrylamide]"
6,A (GI50 < 50 nM),"C=CC(=O)Nc1cc(Nc2cc(N3OCC[C@@H]3c3cc(F)cc(F)c3)ncn2)c(OC)cc1N1CCC(N2CCCN(C3CC3)CC2)CC1 [compound 717, N-(2-(4-(4-cyclopropyl-1,4-diazepane-1-yl)piperidine-1-yl)-5-((6-((R)-3-(3,5-difluorophenyl)isoxazolidine-2-yl)pyrimidine-4-yl)amino)-4-methoxyphenyl) acrylamide]"
7,A (GI50 < 50 nM),"C=CC(=O)Nc1cc(Nc2cc(N3OCC[C@@H]3c3cccc(F)c3)ncn2)c(OC)cc1N1CCC(N2CCN(C3CC3)CC2)CC1 [Example 64, N-(2-(4-(4-cyclopropylpiperazine-1-yl)piperidine-1-yl)-5-((6-((R)-3-(3-fluorophenyl)isoxazolidine-2-yl)pyrimidine-4-yl)amino)-4-methoxyphenyl) acrylamide]"
8,A (GI50 < 50 nM),"C=CC(=O)Nc1cc(Nc2cc(N3OCC[C@@H]3c3cccc(C)c3F)ncn2)c(OC)cc1N1CCC(N(C)C)CC1 [compound 864, N-(2-(4-(dimethylamino)piperidine-1-yl)-5-((6-((R)-3-(2-fluoro-3-methylphenyl)isoxazolidine-2-yl)pyrimidine-4-yl)amino)-4-methoxyphenyl) acrylamide]"
9,A (GI50 < 50 nM),"C=CC(=O)Nc1cc(Nc2cc(N3OCC[C@@H]3c3cc(F)cc(F)c3)ncn2)c(OC)cc1N1CCC(N2CCN(CC3CC3)CC2)CC1 [Example 92, N-(2-(4-(4-(cyclopropylmethyl)piperazine-1-yl)piperidine-1-yl)-5-((6-((R)-3-(3,5-difluorophenyl)isoxazolidine-2-yl)pyrimidine-4-yl)amino)-4-methoxyphenyl) acrylamide]"
10,A (GI50 < 50 nM),"C=CC(=O)Nc1cc(Nc2cc(N3OCC[C@@H]3c3ccc(F)cc3)ncn2)c(OC)cc1N1CCC(N2C[C@@H]3C[C@H]2CO3)CC1 [compound 812, N-(2-(4-((1S,4S)-2-oxa-5-azabicyclo [2.2.1]heptane-5-yl)piperidine-1-yl)-5-((6-((R)-3-(4-fluorophenyl)isoxazolidine-2-yl)pyrimidine-4-yl)amino)-4-methoxyphenyl) acrylamide]"
11,B (50 nM ≤ GI50 < 500 nM),"C=CC(=O)Nc1cc(Nc2cc(N3OCC[C@@H]3Cc3cccc(N(C)C)c3)ncn2)c(OC)cc1N1CCC(N2CCN(C3CC3)[C@@H](C)C2)CC1 [compound 1045, N-(2-(4-((S)-4-cyclopropyl-3-methylpiperazine-1-yl)piperidine-1-yl)-5-((6-((S)-3-(3-(dimethylamino)benzyl)isoxazolidine-2-yl)pyrimidine-4-yl)amino)-4-methoxyphenyl) acrylamide]"
12,A (GI50 < 50 nM),"C=CC(=O)Nc1cc(Nc2cc(N3OCC[C@@H]3c3cccc(C#N)c3)ncn2)c(OC)cc1N1CCC(N2C[C@H]3C[C@@H]2CO3)CC1 [compound 389, N-(2-(4-((1R,4R)-2-oxa-5-azabicyclo[2.2.1]heptane-5-yl)piperidine-1-yl)-5-((6-((R)-3-(3-cyanophenyl)isoxazolidine-2-yl)pyrimidine-4-yl)amino)-4-methoxyphenyl) acrylamide]"
13,A (GI50 < 50 nM),"C=CC(=O)Nc1cc(Nc2cc(N3OCC[C@@H]3c3c(F)ccc(F)c3F)ncn2)c(OC)cc1N1CCC(N2CCN(C3CCC3)CC2)CC1 [Example 194, N-(2-(4-(4-cyclobutylpiperazine-1-yl)piperidine-1-yl)-4-methoxy-5-((6-((R)-3-(2,3,6-trifluorophenyl)isoxazolidine-2-yl)pyrimidine-4-yl)amino)phenyl)acrylamide]"
14,A (GI50 < 50 nM),"C=CC(=O)Nc1cc(Nc2cc(N3OCC[C@@H]3c3ccc(F)cc3F)ncn2)c(OC)cc1N1CCN(C2CCN(C)CC2)CC1 [compound 345, N-(5-((6-((R)-3-(2,4-difluorophenyl)isoxazolidine-2-yl)pyrimidine-4-yl)amino)-4-methoxy-2-(4-(1-methylpiperidine-4-yl)piperazine-1-yl)phenyl)acrylamide]"
15,A (GI50 < 50 nM),"C=CC(=O)Nc1cc(Nc2cc(N3OCC[C@@H]3c3ccc(Cl)c(Cl)c3)ncn2)c(OC)cc1N1C[C@@H]2C[C@H]1CN2C [compound 684, N-(5-((6-((R)-3-(3,4-dichlorophenyl)isoxazolidine-2-yl)pyrimidine-4-yl)amino)-4-methoxy-2-((1S,4S)-5-methyl-2,5-diazabicyclo[2.2.1]heptane-2-yl)phenyl) acrylamide]"
16,A (GI50 < 50 nM),"C=CC(=O)Nc1cc(Nc2cc(N3OCC[C@@H]3Cc3cccc(Cl)c3C)ncn2)c(OC)cc1N1CCC(N2CCN(C3CC3)[C@@H](C)C2)CC1 [compound 1028, N-(5-((6-((S)-3-(3-chloro-2-methylbenzyl)isoxazolidine-2-yl)pyrimidine-4-yl)amino)-2-(4-((S)-4-cyclopropyl-3-methylpiperazine-1-yl)piperidine-1-yl)-4-methoxyphenyl) acrylamide]"
17,A (GI50 < 50 nM),"C=CC(=O)Nc1cc(Nc2cc(N3OCC[C@@H]3c3ccc(F)cc3F)ncn2)c(OC)cc1N1CCC(N2CCN(CC3CC3)CC2)CC1 [Example 203, N-(2-(4-(4-(cyclopropylmethyl)piperazine-1-yl)piperidine-1-yl)-5-((6-((R)-3-(2,4-difluorophenyl)isoxazolidine-2-yl)pyrimidine-4-yl)amino)-4-methoxyphenyl) acrylamide]"
18,A (GI50 < 50 nM),"C=CC(=O)Nc1cc(Nc2cc(N3OCC[C@@H]3c3cccc(C)c3F)ncn2)c(OC)cc1N1CCC(N2C[C@@H](C)N(C3CC3)C[C@H]2C)CC1 [Example 124, N-(2-(4-((2R,5R)-4-cyclopropyl-2,5-dimethylpiperazine-1-yl)piperidine-1-yl)-5-((6-((R)-3-(2-fluoro-3-methylphenyl)isoxazolidine-2-yl)pyrimidine-4-yl)amino)-4-methoxyphenyl) acrylamide]"
19,A (GI50 < 50 nM),"C=CC(=O)Nc1cc(Nc2cc(N3OCC[C@@H]3Cc3cccc(Cl)c3F)ncn2)c(OC)cc1N1CCC(N2CCN(C3CC3)[C@@H](C)C2)CC1 [compound 1018, N-(5-((6-((S)-3-(3-chloro-2-fluorobenzyl)isoxazolidine-2-yl)pyrimidine-4-yl)amino)-2-(4-((S)-4-cyclopropyl-3-methylpiperazine-1-yl)piperidine-1-yl)-4-methoxyphenyl) acrylamide]"
20,A (GI50 < 50 nM),"C=CC(=O)Nc1cc(Nc2cc(N3OCC[C@@H]3c3cccc(Cl)c3)ncn2)c(OC)cc1N1CCOCC1 [compound 467, N-(5-((6-((R)-3-(3-chlorophenyl)isoxazolidine-2-yl)pyrimidine-4-yl)amino)-4-methoxy-2-morpholinophenyl) acrylamide]"
21,A (GI50 < 50 nM),"C=CC(=O)Nc1cc(Nc2cc(N3OCC[C@@H]3c3cccc(Cl)c3C)ncn2)c(OC)cc1N1CCC(N2CCN(C3CC3)CC2)CC1 [Example 145, N-(5-((6-((R)-3-(3-chloro-2-methylphenyl)isoxazolidine-2-yl)pyrimidine-4-yl)amino)-2-(4-(4-cyclopropylpiperazine-1-yl)piperidine-1-yl)-4-methoxyphenyl) acrylamide]"
22,C (500 nM ≤ GI50 < 5000 nM),"C=CC(=O)Nc1cc(Nc2cc(N3OCC[C@H]3Cc3ccccn3)ncn2)c(OC)cc1N1CCC(N2CCN(C3CC3)CC2)CC1 [compound 1058, N-(2-(4-(4-cyclopropylpiperazine-1-yl)piperidine-1-yl)-4-methoxy-5-((6-((R)-3-(pyridine-2-ylmethyl)isoxazolidine-2-yl)pyrimidine-4-yl)amino)phenyl)acrylamide]"
23,A (GI50 < 50 nM),"C=CC(=O)Nc1cc(Nc2cc(N3OCC[C@@H]3c3cc(F)cc(F)c3)ncn2)c(OC)cc1N1CCC(N2CCN(C3CCC3)CC2)CC1 [Example 68, N-(2-(4-(4-cyclobutylpiperazine-1-yl)piperidine-1-yl)-5-((6-((R)-3-(3,5-difluorophenyl)isoxazolidine-2-yl)pyrimidine-4-yl)amino)-4-methoxyphenyl) acrylamide]"
